Measured values published in patent US20160130352A1, “RHAMM, A CO-RECEPTOR AND ITS INTERACTIONS WITH OTHER RECEPTORS IN CANCER CELL MOTILITY AND THE IDENTIFICATION OF CANCER PROGNITOR CELL POPULATIONS” (THE REGENTS OF THE UNIVERSITY OF CALIFORNIA, priority 2006, published 2016).
Like-named read-outs stand apart in the source and are kept apart here.

What was measured:
MCF7 cells = assay: Time-lapse cinemicrography random motility; format: cell-based, human; settings: for motility: peptide 1 μg/ml, 30 minutes prior to filming
Experimental: Random motility analyses were performed to quantify the effect of the blocking Rhamm and CD44 antibodies, HA binding peptide, hyaluronan, and the MEK inhibitor, PD098059 on cell motility. Cells were seeded on T-25 flasks (Costar, Cambridge. Mass.) at 1×10^5 cells/flask. Cells were incubated with anti-Rhamm antibody (30 μg/ml), anti-CD44 antibody (30 μg/ml), a mixture of anti-Rhamm (30 μg/ml) and anti-CD44 antibodies ([…]), HA binding peptide (1 μg/ml) or its scrambled control (1 μg/ml), and/or 50 μM PD098059 for 30 minutes prior to filming. […] As a control, a mixture of mouse and rabbit IgG (30 μg/ml each), DMSO (for PD098059) or PBS (for HA) were used. Cell locomotion was monitored for a period of 6 hours using a 10× modulation objective (Zeiss, Germany) attached to a Zeiss Axiovert 100 inverted microscope equipped with Hoffman Modulation contrast optical filters (Greenvale, N.Y.) and a 37° C. heated stage. Cell images were captured with a CCD video camera module attached to a Hamamatsu CCD camera controller. Motility was assessed using Northern Exposure 2.9 image analysis software (Empix Imaging, Mississauga, Ontario). Nuclear displacement of 20-30 cells was measured and data were subjected to statistical analysis (see below). Each experiment was repeated at least three times. PD098059 MEK inhibitor was used to test the involvement of the MAP kinase pathway in the motility of these cells. The cells were incubated with the MEK1 inhibitor at 50 μM in complete culture medium 30 minutes before the beginning of motility filming. DMSO alone was used as a control. The results of motility analyses were expressed as means (μm/hour) means±standard deviations, unless otherwise indicated.

MDA-MB-231 cells = assay: Time-lapse cinemicrography random motility; format: cell-based, human
Experimental: Random motility analyses were performed to quantify the effect of the blocking Rhamm and CD44 antibodies, HA binding peptide, hyaluronan, and the MEK inhibitor, PD098059 on cell motility. Cells were seeded on T-25 flasks (Costar, Cambridge. Mass.) at 1×10^5 cells/flask. Cells were incubated with anti-Rhamm antibody (30 μg/ml), anti-CD44 antibody (30 μg/ml), a mixture of anti-Rhamm (30 μg/ml) and anti-CD44 antibodies ([…]), HA binding peptide (1 μg/ml) or its scrambled control (1 μg/ml), and/or 50 μM PD098059 for 30 minutes prior to filming. Alternatively, cells were stimulated with […] of HA immediately prior to filming. As a control, a mixture of mouse and rabbit IgG (30 μg/ml each), DMSO (for PD098059) or PBS (for HA) were used. Cell locomotion was monitored for a period of 6 hours using a 10× modulation objective (Zeiss, Germany) attached to a Zeiss Axiovert 100 inverted microscope equipped with Hoffman Modulation contrast optical filters (Greenvale, N.Y.) and a 37° C. heated stage. Cell images were captured with a CCD video camera module attached to a Hamamatsu CCD camera controller. Motility was assessed using Northern Exposure 2.9 image analysis software (Empix Imaging, Mississauga, Ontario). Nuclear displacement of 20-30 cells was measured and data were subjected to statistical analysis (see below). Each experiment was repeated at least three times. PD098059 MEK inhibitor was used to test the involvement of the MAP kinase pathway in the motility of these cells. The cells were incubated with the MEK1 inhibitor at 50 μM in complete culture medium 30 minutes before the beginning of motility filming. DMSO alone was used as a control. The results of motility analyses were expressed as means (μm/hour) means±standard deviations, unless otherwise indicated.

[1] = set-up: species or system humans; settings: human, in vivo, iv
[2] = Pharmacokinetic parameters of HA in serum by route of administration (competitive binding ELISA); format: in vivo
Text: Table 2 below is a summary of the kinetic analysis of HA in serum by different routes of administration.

[3] = Kinetics and tolerability of HA injected I.V. in rats; format: in vivo; settings: I.V. 1-12 mg/kg
[4] = set-up: species or system mice; settings: mouse, in vivo, iv
Text: J Am Chem Soc. 125(25): p. 7494-5, hereby incorporated by reference), MDA-MB-231 breast tumor xenografts which express high levels of Rhamm and CD44 (FIG. 2A) and the liver, whose endothelial cells express the HA endocytic receptor, Hare (See FIG. 13D and Weigel, P. H. and J. H. Yik, 2002. Glycans as endocytosis signals: the cases of the asialoglycoprotein and hyaluronan/chondroitin sulfate receptors. Biochim Biophys Acta. 1572(2-3): p. 341-63).

[5] = PD098059 50 μM and/or anti-Rhamm antibodies
[6] = serum starved 24-48 hours, 25-50 μg/ml exogenous HA
[7] = peptide 1 μg/ml, 30 minutes prior to filming

COc1cccc(-c2cc(=O)c3ccccc3o2)c1N [PD098059]
basal motility (MCF7 cells; [5]): no effect | basal motility rate (MDA-MB-231 cells; [5]): significantly inhibited

Hyaluronan [HA]
half-life [1]: up to 12 hrs | T1/2 (HA serum levels) ([1]; 1.5 mg/kg): 12 h | Cmax ([2]; Intravenous): 5096.00 µg/mL | Tmax ([2]; Intravenous): 12 h | Cmax ([2]; Oral): 0.15 µg/mL | Tmax ([2]; Oral): 36 h | Cmax ([2]; Subcutaneous): 1454.00 µg/mL | Tmax ([2]; Subcutaneous): 72 h | motility rate (MCF7 cells; [6]): no effect | tolerability [3]: well tolerated | motility (MDA-MB-231 cells; [6]): significantly stimulated motility | half-life [4]: up to 12 hrs

YKQKIKHVVKLK [HA-binding peptide]
motility (MCF7 cells): no effect | motility (MDA-MB-231 cells; [7]): significantly reduced motility

YLKQKKVKKHIV [scrambled control peptide]
motility (MCF7 cells): no effect | motility (MDA-MB-231 cells; [7]): no effect
